What was measured:
[1] = system: DC2.4 cells; assay: DC2.4 IL-6 ELISA assay (IL-6 secretion after LPS); type: cell-based, mouse; settings: highest signal vs 0.1% DMSO, 24 h
Description: Test Example 4: Detection of Compound's Activating Ability to Stimulate DC2.4 Cells to Secrete Cytokine Interleukin-6 (IL-6) ([…])
The specific operation is as follows: the compound powder was dissolved in DMSO to 10 mM, 2 μl of the compound was added to 998 μl of RPMI 1640 medium (contained 10% FBS in this test), and the highest concentration point was obtained after vortexing. The compound solution was gradually diluted 3 times with 0.2% DMSO medium, with a total of 8 concentration points. That treated with RPMI 1640 medium solution containing 0.1% DMSO was used as a control. Add 10^5 DC2.4 cells to each well of Corning 96-well cell culture plate (product number: 3599), then add an equal volume of compound dilution, add RPMI 1640 medium containing 0.2% DMSO to the control group, and place the cells at 37° C. to incubate for 1 h in an incubator (Thermo Fisher Scientific, model: 3111). Subsequently, LPS was added at a final concentration of 3.2 ng/ml, and placed in a cell culture incubator at 37° C. for 24 hours. Mouse IL-6 DuoSet ELISA KIT was used to detect the IL-6 content in the cell supernatant, and the Mouse […] DuoSet ELISA detection was carried out according to the operating instructions of the kit. Data are described as the highest fold ratio of the stimulated signal of the compound to the signal of 0.1% DMSO.

[2] = target: HPK1 kinase (Homo sapiens (Human), UniProt Q92918); assay: HPK1 kinase activity inhibition (ADP-Glo Kinase Assay); type: biochemical; settings: HPK1, MBP substrate, ATP, 25° C. 60 min
Chain of HPK1 kinase (Q92918 whole entry): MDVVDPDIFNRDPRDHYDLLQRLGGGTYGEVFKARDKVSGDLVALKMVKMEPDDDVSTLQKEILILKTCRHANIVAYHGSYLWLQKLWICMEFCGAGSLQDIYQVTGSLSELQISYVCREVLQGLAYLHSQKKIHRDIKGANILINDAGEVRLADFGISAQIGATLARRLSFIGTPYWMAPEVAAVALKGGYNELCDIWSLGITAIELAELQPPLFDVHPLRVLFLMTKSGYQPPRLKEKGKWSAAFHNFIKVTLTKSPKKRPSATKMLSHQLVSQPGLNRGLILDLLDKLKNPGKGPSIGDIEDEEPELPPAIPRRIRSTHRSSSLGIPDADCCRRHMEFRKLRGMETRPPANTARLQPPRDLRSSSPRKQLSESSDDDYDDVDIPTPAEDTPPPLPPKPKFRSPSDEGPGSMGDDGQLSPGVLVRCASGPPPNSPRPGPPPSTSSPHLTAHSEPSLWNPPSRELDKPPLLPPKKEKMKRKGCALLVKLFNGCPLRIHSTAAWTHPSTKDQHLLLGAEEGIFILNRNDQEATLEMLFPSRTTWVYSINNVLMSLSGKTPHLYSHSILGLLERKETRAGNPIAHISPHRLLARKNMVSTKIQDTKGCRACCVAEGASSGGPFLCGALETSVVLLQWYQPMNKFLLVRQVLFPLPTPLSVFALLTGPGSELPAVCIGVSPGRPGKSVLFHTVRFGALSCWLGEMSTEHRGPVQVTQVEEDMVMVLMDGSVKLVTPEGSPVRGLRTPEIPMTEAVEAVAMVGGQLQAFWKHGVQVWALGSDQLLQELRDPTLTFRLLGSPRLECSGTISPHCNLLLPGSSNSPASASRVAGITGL
Description: Test Example 1: Detection of Compound's Ability to Inhibit HPK1 Kinase Activity (Method 1)
The specific operation is as follows: configure the enzymatic reaction system buffer (10 mM MOPS, pH 7.2, 5 mM β-glycerol-phosphate, 10 mM MgCl2, 0.8 mM EDTA, 2 mM EGTA, 0.1 mM DTT); the test compound (1 mM the compound stock solution in DMSO) was diluted with buffer to the highest concentration of 60 uM (containing 6% DMSO), and the compound with a concentration of 60 μM was initially diluted 5 times with a buffer containing 6% DMSO for a total of 8 points of gradient concentration; then dilute HPK1 kinase to 30 nM in buffer. Add 2 μl of HPK1 kinase diluent to each well of a Greiner 384-well microplate (Cat. No. 784075), and add 2 μl of buffer to the control well; add 1 μl of the diluted compound to the reaction well after brief centrifugation, and add 1 μl buffer solution containing 6% DMSO to the control well; after short centrifugation, place in a 25° C. constant temperature incubator (Shanghai Yiheng Scientific Instrument Co., Ltd., Cat. No.: LRH-150) and incubate for 20 minutes. Add 3 μl of reaction substrate (10 μM MBP and 20 μM ATP dissolved in distilled water) to each well, briefly centrifuge and incubate in a constant temperature incubator at 25° C. for 60 min, and use ADP-Glo Kinase Assay Kit to detect the enzymatic reaction activity, ADP-Glo Kinase Assay Kit detection is carried out according to the operating instructions of the kit. Data are described using the half maximal inhibitory concentration IC50 of the compound.

[3] = system: mouse spleen cells; assay: Spleen IL-2 ELISA assay (IL-2 secretion after Concanavalin A); type: cell-based, mouse (C57BL/6); settings: highest signal vs 0.1% DMSO, ConA, 24 h
Description: Test Example 3: Detection of Compound's Activating Ability to Secrete Cytokine Interleukin-2 (IL-2) from Mouse Spleen Cells (Method 3)
The specific operation is as follows: the compound powder was dissolved in DMSO to 10 mM, 2 μl of the compound was added to 998 μl of RPMI 1640 medium (contained 10% FBS in this test), and the highest concentration point was obtained after vortexing. The compound solution was gradually diluted 3 times with 0.2% DMSO medium, with a total of 8 concentration points. That treated with RPMI 1640 medium solution containing 0.1% DMSO was used as a control. Add 10^5 mouse spleen cells to each well of Corning 96-well cell culture plate (product number: 3599), then add an equal volume of compound dilution, add RPMI 1640 medium containing 0.2% DMSO to the control group, and place the cells at 37° C. to incubate for 1 h in a cell culture incubator (Thermo Fisher Scientific, model: 3111). Then add Concanavalin A at a final concentration of 0.4 μg/ml and place in a cell culture incubator at 37° C. for 24 hours. Mouse IL-2 DuoSet ELISA KIT was used to detect the IL-2 content in the cell supernatant, and the Mouse […] DuoSet ELISA detection was carried out according to the operating instructions of the kit. Data are described as the highest fold ratio of the stimulated signal of the compound to the signal of 0.1% DMSO.

[4] = system: PBMC; assay: PBMC IL-2 ELISA assay (IL-2 secretion after anti-CD3/anti-CD28); type: cell-based, human; settings: highest signal vs 0.1% DMSO, anti-CD3/CD28, 24 h
Description: Test Example 5: Detection of Compound's Activating Ability to Secrete Cytokine Interleukin-2 (IL-2) from PBMC (Method 5)
The specific operation is as follows: the compound powder was dissolved in DMSO to 10 mM, 2 μl of the compound was added to 998 μl of RPMI 1640 medium (contained 10% FBS in this test), and the highest concentration point was obtained after vortexing. The compound solution was gradually diluted 3 times with 0.2% DMSO medium, with a total of 8 concentration points. That treated with RPMI 1640 medium solution containing 0.1% DMSO was used as a control. 1×10˜ 5 PBMC cells were added to each well of Corning 96-well cell culture plate (item number: 3599), and then the same volume of compound diluent was added to the control group. RPMI 1640 medium containing 0.2% DMSO was added to the control group and incubated in a 37° C. cell incubator (Thermo Fisher Scientific, model: 3111) for 1 hour. Then add Anti-human CD3 Antibody and 1 μg/ml Anti-human CD28 Antibody at a final concentration of 0.1 μg/ml, and place in a 37° C. cell culture incubator to incubate for 24 hours. The Human IL-2 DuoSet ELISA KIT was used to detect the IL-2 content in the cell supernatant, and the Human IL-2 DuoSet ELISA detection was performed according to the operating instructions of the kit. Data are described as the highest fold ratio of the stimulated signal of the compound to the signal of 0.1% DMSO.

[5] = at compound concentration 10 μM
[6] = at compound concentration 0.37 μM
[7] = at compound concentration 1.1 μM
[8] = at compound concentration 1.11 μM
[9] = at compound concentration 3.3 μM

Compound	IC50 [2] [nM]	% IL-2 increased (relative to DMSO control) [4, 6] [%]	% IL-6 increased (relative to DMSO control) [1, 8] [%]	further results
3-((8-(3,3-difluoropyrrolidin-1-yl)pyrido[3,4-d]pyrimidin-2-yl)amino)-1,6-dimethyl-5,6, 7,8-tetrahydro-1,6-naphthyridin-2(1H)-one [Example 85]	25.3	–	–	% IL-6 increased (relative to DMSO control) [1, 5]: 305.00%; % IL-2 increased (relative to DMSO control) [3, 5]: 260%; % IL-2 increased (relative to DMSO control) [4, 5]: 339%
Cn1c2c(cc(Nc3ncc4ccnc(N5CCSCC5)c4n3)c1=O)CN(CCO)CC2 [Example 84, 6-(2-hydroxyethyl)-1-methyl-3-((8-thiomorpholinopyrido[3,4-d]pyrimidin-2-yl)amino)-5,6,7,8-tetrahydro-1,6-naphthyridin-2(1H)-one]	0.43	–	–	–
CN1CCc2c(cc(Nc3ncc4ccnc(N5CC6CC6C5)c4n3)c(=O)n2C)C1 (centres unmarked) [Example 86, 3-((8-(3-azabicyclo[3.1.0]hex-3-yl)pyrido[3,4-d]pyrimidin-2-yl)amino)-1,6-dimethyl-5,6,7,8-tetrahydro-1,6-naphthyridin-2(1H)-one]	56.3	–	–	–
COCCn1c2c(cc(Nc3ncc4ccnc(N5CCC(F)(F)CC5)c4n3)c1=O)CN(C)CC2 [Example 87, 3-((8-(4,4-difluoropiperidin-1-yl)pyrido[3,4-d]pyrimidin-2-yl)amino)-1-(2-methoxyethyl)-6-methyl-5,6,7,8-tetrahydro-1,6-naphthyridin-2(1H)-one]	19.9	–	–	–
COc1nc2c(cc1Nc1ncc3ccnc(N[C@@H](CO)C(C)C)c3n1)CN(C)CC2 [Example 92]	0.23	182	–	% IL-6 increased (relative to DMSO control) [1, 6]: 546.00%; % IL-2 increased (relative to DMSO control) [3, 6]: 160%
COc1nc2c(cc1Nc1ncc3ccnc(N[C@@H]4CCC[C@H]4O)c3n1)CN(C)CC2 [Example 99]	< 0.1	–	–	% IL-6 increased (relative to DMSO control) [1, 5]: 526.00%; % IL-2 increased (relative to DMSO control) [4, 7]: 236%
COc1nc2c(cc1Nc1ncc3ccnc(N[C@@H]4CC[C@@H](O)C4)c3n1)CN(C)CC2 [Example 100]	< 0.1	239	623.00	% IL-2 increased (relative to DMSO control) [3, 9]: 190%
COc1nc2c(cc1Nc1ncc3ccnc(N[C@@H]4CCC[C@@H]4O)c3n1)CN(C)CC2 [Example 102]	< 0.1	–	553.00	% IL-2 increased (relative to DMSO control) [3, 9]: 180%
COc1nc2c(cc1Nc1ncc3ccnc(N[C@H]4CCC[C@H]4O)c3n1)CN(C)CC2 [Example 104]	< 0.1	139	341.00	% IL-2 increased (relative to DMSO control) ([3]; at compound concentration 0.0046 μM): 120%
COc1nc2c(cc1Nc1ncc3ccnc(N[C@H]4CCC[C@@H]4O)c3n1)CN(C)CC2 [Example 105]	< 0.1	–	321.00	% IL-2 increased (relative to DMSO control) [3, 7]: 170%; % IL-2 increased (relative to DMSO control) [4, 7]: 176%
